Assay results taken from patent US8628767B2, “Purine nucleoside phosphorylase as enzymatic activator of nucleoside prodrugs” (priority 2008, dated 2014).
Substitutions are numbered along the chain they refer to. Numbers in names are those of the source. Read-outs that look alike come from different tables or passages of the source.

B1: Salmonella typhimurium PNP: purine nucleoside phosphorylase of Salmonella typhimurium (protein, UniProt Q8ZJV7 1-239, looked up)
Purine nucleoside …: MATPHINAEMGDFADVVLMPGDPLRAKHIAETFLENVREVNNVRGMLGFTGTYKGRKISVMGHGMGIPSCSIYTKELITDFGVKKIIRVGSCGAVRMDVKLRDVVIGMGACTDSKVNRIRFKDHDFAAIADFDMVRNAVDAAKALGVDARVGNLFSADLFYSPDGEMFDVMEKYGVLGVEMEAAGIYGVAAEFGAKALTICTVSDHIRTHEQTTAAERQTTFNDMIKIALESVLLGDKE
B2: E. coli PNP: wild-type E. coli purine nucleoside phosphorylase (protein, UniProt P0ABP8 2-239, looked up)
Purine nucleoside …: ATPHINAEMGDFADVVLMPGDPLRAKYIAETFLEDAREVNNVRGMLGFTGTYKGRKISVMGHGMGIPSCSIYTKELITDFGVKKIIRVGSCGAVLPHVKLRDVVIGMGACTDSKVNRIRFKDHDFAAIADFDMVRNAVDAAKALGIDARVGNLFSADLFYSPDGEMFDVMEKYGILGVEMEAAGIYGVAAEFGAKALTICTVSDHIRTHEQTTAAERQTTFNDMIKIALESVLLGDKE
B3: E. Coli PNP mutant M65V (protein, UniProt P0ABP8 2-239, looked up, variant M65V)
Purine nucleoside …: B2 Purine nucleoside … with M64V

Legend:
[1] = tested on: T. vaginalis PNP; test: Substrate cleavage by wild-type Tv-PNP (HPLC); type: biochemical, Trichomonas vaginalis; details: 100 micromolar substrate, HPLC separation of base from nucleoside
Method: (§1) The method quantitatively measures the cleavage of substrates in vitro. The purine analog nucleosides (0.1 mM in 500 μl of 100 mM HEPES, pH 7.4, 50 mM potassium phosphate) are combined with 100 μg/ml Tv-PNP or wild-type E. coli PNP. The reaction mixtures are incubated at 25° C. for 1 hour, and the reactions stopped by boiling each sample for 2 minutes. Protein concentration and time of assay are varied depending on activity of enzyme for a particular substrate. Each sample is analyzed by reverse phase HPLC to measure conversion from substrate to product. The nucleoside and purine analogs are eluted from a Spherisorb ODSI (5 μm) column (Keystone Scientific, Inc., State College, Pa.) with a solvent containing 50 mM ammonium dihydrogen phosphate (95%) and acetonitrile (5%). Products are detected by absorbance at 254 nm, and are identified by comparing their retention times and absorption spectra with authentic control samples.
Numerous compounds are tested for efficiency as substrate for Tv-PNP in parallel comparison with E. coli PNP. The compounds include various analogs of adenosine, of inosine, of MeP-dR, and of fluoro- or chloro-substituted adenosine. The enzymes are incubated with 100 micromolar of each compound listed in the table and the rate of enzymatic cleavage is determined by HPLC separation of the base from the nucleoside. […] It is appreciated that the greater biological activity of the Tv-PNP enzyme allows for greater activity in impairing abnormal cell growth when the Tv-PNP is used for treatment of pathological conditions using F-araA as a prodrug substrate.

[2] = target: E. coli PNP (Escherichia coli, UniProt P0ABP8); test: Substrate cleavage by wild-type E. coli PNP (HPLC); type: biochemical; details: 100 micromolar substrate, HPLC separation of base from nucleoside
Method: as §1
Numerous compounds are tested for efficiency as substrate for Tv-PNP in parallel comparison with E. coli PNP. […] The enzymes are incubated with 100 micromolar of each compound listed in the table and the rate of enzymatic cleavage is determined by HPLC separation of the base from the nucleoside.

[3] = Cleavage of MeP-dR by PNPs of various origins (HPLC); type: biochemical; details: 100 μM MeP-dR, enzymes of various purities
[4] = Cleavage of F-araA by PNPs of various origins (HPLC); type: biochemical; details: for F-araA rate of cleavage: 100 μM F-araA, enzymes of various purities
[5] = equimolar quantities of substrate

E. coli PNP, sequence (P0ABP8 whole entry): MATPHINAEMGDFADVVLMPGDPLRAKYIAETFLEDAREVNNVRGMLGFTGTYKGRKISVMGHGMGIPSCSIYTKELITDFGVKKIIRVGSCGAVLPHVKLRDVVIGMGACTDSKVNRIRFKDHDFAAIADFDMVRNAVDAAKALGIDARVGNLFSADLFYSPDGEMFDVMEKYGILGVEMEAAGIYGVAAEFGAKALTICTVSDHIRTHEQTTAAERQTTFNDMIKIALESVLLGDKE

Molecule | rate of enzymatic cleavage by T. vaginalis PNP [1] | rate of enzymatic cleavage by E. coli PNP [2] | MeP-dR rate of cleavage [3] | F-araA rate of cleavage [4] | MeP-dR/F-araA cleavage ratio [4, 5] | MeP-dR/F-araA cleavage ratio [4] | MeP-dR/F-araA cleavage ratio ([4]; purified enzyme)
Nc1ncnc2c1ncn2[C@@H]1O[C@H](CO)[C@@H](O)[C@@H]1O [9-β-D-arabinofuranosyl-adenine] | 38,000 nanomoles per milligrams per hour | 610 nanomoles per milligrams per hour | – | – | – | – | –
Nc1nc2c(ncn2[C@@H]2O[C@H](CO)[C@@H](O)[C@@H]2O)c(=O)[nH]1 [9-β-D-arabinofuranosyl-guanine] | 16 nanomoles per milligrams per hour | 310 nanomoles per milligrams per hour | – | – | – | – | –
O=c1[nH]cnc2c1ncn2[C@@H]1O[C@H](CO)[C@@H](O)[C@@H]1O [9-β-D-arabinofuranosyl-hypoxanthine] | 48 nanomoles per milligrams per hour | 61 nanomoles per milligrams per hour | – | – | – | – | –
Cc1ncnc2c1ncn2[C@@H]1O[C@H](CO)[C@@H](O)[C@H]1O [9-β-D-ribofuranosyl-6-methylpurine] | 155,000 nanomoles per milligrams per hour | 96,000 nanomoles per milligrams per hour | – | – | – | – | –
Nc1ncnc2c1ncn2[C@@H]1O[C@H](CO)[C@H](O)[C@H]1O [9-β-D-xylofuranosyl-adenine] | 2 nanomoles per milligrams per hour | <2 nanomoles per milligrams per hour | – | – | – | – | –
Nc1nc2c(ncn2[C@@H]2O[C@H](CO)[C@@H](O)[C@H]2O)c(=O)[nH]1 [Guanosine, reference compound] | 14,000 nanomoles per milligrams per hour | 156,000 nanomoles per milligrams per hour | – | – | – | – | –
OC[C@H]1O[C@@H](n2cnc3c(O)ncnc32)[C@H](O)[C@@H]1O [Inosine, reference compound] | 154,000 nanomoles per milligrams per hour | 342,000 nanomoles per milligrams per hour | – | – | – | – | –
B1 | – | – | 9,150 nmoles/mg/hr | 20 nmol/mg/h | 458 | – | –
B2 | – | – | 528,000 nmoles/mg/hr | 1,250 nmoles/mg/hr | – | 422 | –
B3 | – | – | 1823 nmol/mg/h | 3.9 nmol/mg/h | 469 | 469±52 | 593
